Tested on: M. tb H37Ra bacilli
Assay type: cell-based, Mycobacterium tuberculosis H37Ra

SMILES	Resistance ratio	MIC (mg/l)/Resistance Ratio
[H]/N=C(/N)N[C@H]1[C@H](O)[C@@H](O)[C@H](O[C@@H]2O[C@@H](C)[C@](O)(C=O)[C@H]2O[C@@H]2O[C@@H](CO)[C@H](O)[C@@H](O)[C@@H]2NC)[C@@H](N/C(N)=N\[H])[C@@H]1O [SM, streptomycin]	ratio > 8	–
NNC(=O)c1ccncc1 [INH, isoniazid]	–	>1 mg/L
CO[C@H]1/C=C/O[C@@]2(C)Oc3c(C)c(O)c4c(O)c(c(/C=N/N5CCN(C)CC5)c(O)c4c3C2=O)NC(=O)/C(C)=C\C=C\[C@H](C)[C@H](O)[C@@H](C)[C@@H](O)[C@@H](C)[C@H](OC(C)=O)[C@@H]1C [RMP, rifampicin]	–	>64 mg/L
NC(=O)c1cnccn1 [PZA]	–	>100 mg/L
CC[C@@H](CO)NCCN[C@@H](CC)CO [EMB, ethambutol]	–	>8 mg/L

— patent US20090011442A1, “TB diagnostics based on mycobacterium tuberculosis excretory secretory antigens and their specific immunoglobulins” (priority 2007, published 2009)
